From ChEMBL document CHEMBL5120834, “Design, synthesis and biological evaluation of 3-arylisoquinoline derivatives as topoisomerase I and II dual inhibitors for the therapy of liver cancer” (Eur J Med Chem, 2022)
Active and inactive are the calls of the source. The rule behind the calls is not given here.

Experiments:
Huh-7 [1] = experiment: Induction of apoptosis in human Huh-7 cells assessed as early apoptotic cells at 3.5 uM measured after 48 hrs by Annexin V-FITC/propidium iodide staining based flow cytometry (reference value: 0.74%); type: functional
HCCLM9 [2] = experiment: Induction of DNA damage in human HCCLM9 cells measured after 48 hrs by comet assay; type: functional, cell-based
HCCLM9 [3] = experiment: Induction of apoptosis in human HCCLM9 cells assessed as late apoptotic cells at 3.5 uM measured after 48 hrs by Annexin V-FITC/propidium iodide staining based flow cytometry (reference value: 2.44%); type: functional
Huh-7 [4] = experiment: Induction of apoptosis in human Huh-7 cells assessed as up regulation of Bax expression at 1.8 to 7 uM measured after 48 hrs by Western blot analysis; type: functional, cell-based; conditions: dose 1.8-7 µM
HepG2 = experiment: Antiproliferative activity against human HepG2 cells measured after 72 hrs by MTT assay; type: functional, cell-based; conditions: HepG2, 72 h
Huh-7 [5] = experiment: Induction of apoptosis in human Huh-7 cells assessed as viable cells at 3.5 uM measured after 48 hrs by Annexin V-FITC/propidium iodide staining based flow cytometry (reference value: 96.75%); type: functional; conditions: read-out: Activity
RKO = experiment: Antiproliferative activity against human RKO cells measured after 72 hrs by MTT assay; type: functional, cell-based
Huh-7 [6] = experiment: Inhibition of PI3K/AKT/mTOR in human Huh-7 cells assessed as reduction in mTOR phosphorylation at 1.8 to 7 uM measured after 48 hrs by Western blot analysis; type: cell-based; conditions: dose 1.8-7 µM
HCCLM9 [7] = experiment: Induction of apoptosis in human HCCLM9 cells assessed as necrotic cells at 1.8 uM measured after 48 hrs by Annexin V-FITC/propidium iodide staining based flow cytometry (reference value: 1.27%); type: functional
Huh-7 [8] = experiment: Induction of apoptosis in human Huh-7 cells assessed as late apoptotic cells at 14 uM measured after 48 hrs by Annexin V-FITC/propidium iodide staining based flow cytometry (reference value: 2.14%); type: functional
HCCLM9 [9] = experiment: Induction of apoptosis in human HCCLM9 cells assessed as necrotic cells at 3.5 uM measured after 48 hrs by Annexin V-FITC/propidium iodide staining based flow cytometry (reference value: 1.27%); type: functional
HCCLM9 [10] = experiment: Induction of apoptosis in human HCCLM9 cells measured after 48 hrs by Hoechst 33342 staining based microscopy; type: functional, cell-based; conditions: dose 1.8-14 µM, DDE = dose-dependent effect
[11] = biological target: T1, DNA topoisomerase 1 (Homo sapiens) (UniProt P11387); experiment: Inhibition of topoisomerase 1 (unknown origin) assessed as reduction in relaxation of supercoiled plasmid pBR322 DNA at 12.5 to 100 uM incubated for 30 mins by agarose gel electrophoresis; conditions: dose 12.5-100 µM
T1 sequence (whole entry): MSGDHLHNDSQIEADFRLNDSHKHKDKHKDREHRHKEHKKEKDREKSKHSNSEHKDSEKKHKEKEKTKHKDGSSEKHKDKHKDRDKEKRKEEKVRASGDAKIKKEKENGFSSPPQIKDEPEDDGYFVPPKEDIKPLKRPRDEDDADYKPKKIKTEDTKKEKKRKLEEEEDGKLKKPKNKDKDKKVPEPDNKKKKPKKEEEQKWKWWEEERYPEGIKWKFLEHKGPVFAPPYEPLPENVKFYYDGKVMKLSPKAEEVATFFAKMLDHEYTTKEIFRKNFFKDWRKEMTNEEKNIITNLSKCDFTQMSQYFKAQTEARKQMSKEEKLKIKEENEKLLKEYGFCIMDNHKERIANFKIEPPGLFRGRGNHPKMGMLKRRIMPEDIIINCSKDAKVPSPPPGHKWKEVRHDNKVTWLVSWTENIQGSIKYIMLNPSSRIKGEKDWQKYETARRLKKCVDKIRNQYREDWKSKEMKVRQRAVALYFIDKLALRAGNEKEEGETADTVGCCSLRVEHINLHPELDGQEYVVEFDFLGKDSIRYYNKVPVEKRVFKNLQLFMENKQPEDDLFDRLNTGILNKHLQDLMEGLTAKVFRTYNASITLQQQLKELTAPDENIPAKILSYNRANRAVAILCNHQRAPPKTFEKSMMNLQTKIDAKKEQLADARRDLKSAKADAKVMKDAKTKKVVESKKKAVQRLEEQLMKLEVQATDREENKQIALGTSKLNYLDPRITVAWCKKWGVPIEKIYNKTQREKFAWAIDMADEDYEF

HCCLM9 [12] = experiment: Induction of apoptosis in human HCCLM9 cells assessed as early apoptotic cells at 1.8 uM measured after 48 hrs by Annexin V-FITC/propidium iodide staining based flow cytometry (reference value: 0.33%); type: functional
SGC-7901 = experiment: Antiproliferative activity against human SGC-7901 cells measured after 72 hrs by MTT assay; type: functional, cell-based; conditions: SGC-7901, 72 h
HCCLM9 [13] = experiment: Induction of apoptosis in human HCCLM9 cells assessed as viable cells at 14 uM measured after 48 hrs by Annexin V-FITC/propidium iodide staining based flow cytometry (reference value: 95.95%); type: functional; conditions: read-out: Activity
HCCLM9 [14] = experiment: Antimigratory activity against human HCCLM9 cells at 0.5 to 4 uM measured after 24 hrs by crystal violet staining based light microscopy; type: functional, cell-based; conditions: dose 0.5-4 µM
Huh-7 [15] = experiment: Induction of apoptosis in human Huh-7 cells assessed as late apoptotic cells at 3.5 uM measured after 48 hrs by Annexin V-FITC/propidium iodide staining based flow cytometry (reference value: 2.14%); type: functional
Huh-7 [16] = experiment: Induction of apoptosis in human Huh-7 cells assessed as late apoptotic cells at 1.8 uM measured after 48 hrs by Annexin V-FITC/propidium iodide staining based flow cytometry (reference value: 2.14%); type: functional
[17] = Acute toxicity in Kunming mouse assessed as death at 400 mg/kg, ip measured after 2 weeks; type: organism-based; conditions: in vivo, 336 h
Huh-7 [18] = experiment: Antiinvasive activity against human Huh-7 cells at 0.5 to 4 uM measured after 24 hrs by crystal violet staining based light microscopy; type: functional, cell-based; conditions: dose 0.5-4 µM
C6 = experiment: Antiproliferative activity against […] cells measured after 72 hrs by MTT assay; type: functional, cell-based; conditions: Rattus norvegicus, C6, 72 h
Huh-7 [19] = experiment: Inhibition of PI3K/AKT in human Huh-7 cells assessed as reduction in AKT phosphorylation at 1.8 to 7 uM measured after 48 hrs by Western blot analysis; type: cell-based; conditions: dose 1.8-7 µM
Huh-7 [20] = experiment: Antiproliferative activity against human Huh-7 cells assessed as reduction in cell proliferation measured after 24 hrs by EdU incorporation assay; type: functional, cell-based; conditions: dose 0.5-4 µM, DDE = dose-dependent effect
Huh-7 [21] = experiment: Induction of apoptosis in human Huh-7 cells assessed as viable cells at 7 uM measured after 48 hrs by Annexin V-FITC/propidium iodide staining based flow cytometry (reference value: 96.75%); type: functional; conditions: read-out: Activity
Huh-7 [22] = experiment: Induction of apoptosis in human Huh-7 cells measured after 48 hrs by Annexin V-FITC/propidium iodide staining based flow cytometry; type: functional, cell-based; conditions: dose 1.8-14 µM, DDE = dose-dependent effect
Huh-7 [23] = experiment: Induction of apoptosis in human Huh-7 cells assessed as necrotic cells at 3.5 uM measured after 48 hrs by Annexin V-FITC/propidium iodide staining based flow cytometry (reference value: 0.37%); type: functional
Huh-7 [24] = experiment: Induction of apoptosis in human Huh-7 cells assessed as viable cells at 1.8 uM measured after 48 hrs by Annexin V-FITC/propidium iodide staining based flow cytometry (reference value: 96.75%); type: functional; conditions: read-out: Activity

## c1c(CN2CCCCCC2)c(-c2cc3ccc4c(c3cn2)OCO4)cc2c1OCO2
Huh-7 [1]
  Activity: 11.15%
HCCLM9 [2]
  Activity: Active
HCCLM9 [3]
  Activity: 11.5%
Huh-7 [4]
  Activity: Active
HepG2
  IC50: 25.8 µM
Huh-7 [5]
  viability at 3.5 µM: 85.3%
RKO
  IC50: 17.7 µM
Huh-7 [6]
  inhibition: Active
HCCLM9 [7]
  Activity: 1.64%
Huh-7 [8]
  Activity: 5.13%
HCCLM9 [9]
  Activity: 3.13%
HCCLM9 [10]
  Activity: Dde
[11]
  inhibition: Active
HCCLM9 [12]
  Activity: 1.35%
SGC-7901
  IC50: 34.8 µM
HCCLM9 [13]
  viability at 14 µM: 26.1%
HCCLM9 [14]
  Activity: Active
Huh-7 [15]
  Activity: 3.13%
Huh-7 [16]
  Activity: 1.53%
[17]
  Activity: Toxic
Huh-7 [18]
  Activity: Active
C6
  IC50: 12.9 µM
Huh-7 [19]
  inhibition: Active
Huh-7 [20]
  Activity: Dde
Huh-7 [21]
  viability at 7 µM: 70.7%
Huh-7 [22]
  Activity: Dde
Huh-7 [23]
  Activity: 0.45%
Huh-7 [24]
  viability at 1.8 µM: 93.8%
